Laboratory results published in patent publication US11026936B2, “Piperidinyl-propanone derivatives” (Merck Patent GmbH, priority 2016, dated 2021).

Molecular target: PDHK2 (Homo sapiens (Human), UniProt Q15119)
Assay: Biochemical activity testing of PDHK2: PDC inactivation assay
Details: human rec PDHK2, PDC from porcine heart, ATP 5 μM; read-out: IC50 PDHK2 (enzyme assay)
Description: Biochemical Activity Testing of PDHK2: PDC Inactivation Assay
The biochemical activity assay for PDHK2 is based on the inactivation of PDC through phosphorylation by PDHK2. The assay is run in two steps: the enzymatic PDHK2 reaction in which isolated PDC is phosphorylated by PDHK2 with ATP as co-substrate and the PDC activity assay in which pyruvate and NAD are converted to acetyl-CoA and NADH. The PDC activity correlates to the increase in NADH and thereby is detectable directly via the increasing fluorescence signal (Exc 340 nm, Em 450 nm). Inhibition of PDHK2 results in a lower phosphorylation status and thereby a less decrease in activity of PDC and a stronger increase in NADH fluorescence signal.
The PDC inactivation assay is performed in Greiner 384-well microtiter plates and is used for high throughput screen. 4 μl of PDHK2 (human, rec, Carna Bioscience, 10 ng/μl-137 nM final concentration) and PDC (isolated from porcine heart, Sigma-Aldrich, 20 mU/ml final concentration) are incubated in the absence or presence of the test compound (10 dilution concentrations) for 30 min at room temperature in kinase buffer (15 mM potassium phosphate buffer, pH 7.0, 60 mM KCl, 1.5 mM DTT, 2.5 mM MgCl2, 0.0125% (w/v) BSA, 0.125% Pluronic F-68). The kinase reaction is started by the addition of 4 μl ATP substrate solution (fc 5 μM in kinase buffer). After 30 min incubation at 37° C. 40 μl of PDC reaction solution (100 mM Tris/HCl, pH 7.8, 0.5 mM EDTA, 1 mM MgCl2, 50 mM NaF, 0.25 mM Coenzyme A, 5 mM pyruvate, 1 mM NAD, 5 mM DTT, 1 mM thiamine pyrophosphate) is added. The first fluorescence measurement is performed on a Perkin Elmer Envision (Exc 340 nm, Em 450 nm). The reaction is incubated for 45 min at room temperature. Afterwards a second fluorescence measurement is performed and the PDC activity is calculated by the difference between both measurements. As full value for the PDHK2 assay the inhibitor-free PDHK2 reaction is used. The pharmacological zero value used is DCA (Sigma-Aldrich) in a final concentration of 3 mM. The inhibitory values (IC50) were determined using either the program Symyx Assay Explorer® or Condosseo® from GeneData.

SMILES | IC50 [µM]
Cc1ccc(-c2nnc(C3([C@@H]4CCN(C(=O)[C@@](C)(O)C(F)(F)F)C[C@@H]4C)CC3)o2)cc1 [Compound A24, (R)-3,3,3-Trifluoro-2-hydroxy-2-methyl-1-{(3R,4R)-3-methyl-4-[1-(5-p-tolyl-[1,3,4]oxadiazol-2-yl)-cyclopropyl]-piperidin-1-yl}-propan-1-one] | 7.3
COc1ccc(-c2nnc(C3([C@@H]4CCN(C(=O)[C@@](C)(O)C(F)(F)F)C[C@@H]4C)CC3)o2)cc1 [Compound A30, (R)-3,3,3-Trifluoro-2-hydroxy-1-((3R,4R)-4-{1-[5-(4-methoxy-phenyl)-[1,3,4]oxadiazol-2-yl]-cyclopropyl}-3-methyl-piperidin-1-yl)-2-methyl-propan-1-one] | 1.9
C[C@H]1CN(C(=O)[C@@](C)(O)C(F)(F)F)CC[C@H]1C1(c2nnc(-c3ccc(Cl)cc3)o2)CC1 [Compound A36, (R)-1-((3R,4R)-4-{1-[5-(4-Chloro-phenyl)-[1,3,4]oxadiazol-2-yl]-cyclopropyl}-3-methyl-piperidin-1-yl)-3,3,3-trifluoro-2-hydroxy-2-methyl-propan-1-one] | 8.2
COc1ccc(-c2nnc(C3([C@@H]4CCN(C(=O)[C@@](C)(O)C(F)(F)F)C[C@@H]4C)CC3)[nH]2)cn1 [Compound A39, (R)-3,3,3-Trifluoro-2-hydroxy-1-((3R,4R)-4-{1-[5-(6-methoxy-pyridin-3-yl)-4H-[1,2,4]triazol-3-yl]-cyclopropyl}-3-methyl-piperidin-1-yl)-2-methyl-propan-1-one] | 6

Second part, the compound after the results:

IC50 [µM] | SMILES
6.6 | C[C@H]1CN(C(=O)[C@@](C)(O)C(F)(F)F)CC[C@H]1C1(c2nnc(-c3ccccc3)[nH]2)CC1 [Compound A13, (R)-3,3,3-Trifluoro-2-hydroxy-2-methyl-1-{(3R,4R)-3-methyl-4-[1-(5-phenyl-4H-[1,2,4]triazol-3-yl)-cyclopropyl]-piperidin-1-yl}-propan-1-one]
2.6 | C[C@H]1CN(C(=O)[C@@](C)(O)C(F)(F)F)CC[C@H]1C1(c2nnc(-c3ccc(F)cc3)[nH]2)CC1 [Compound A18, (R)-3,3,3-Trifluoro-1-((3R,4R)-4-{1-[5-(4-fluoro-phenyl)-4H-[1,2,4]triazol-3-yl]-cyclopropyl}-3-methyl-piperidin-1-yl)-2-hydroxy-2-methyl-propan-1-one]
4.9 | Cc1ccc(-c2nnc(C3([C@@H]4CCN(C(=O)[C@@](C)(O)C(F)(F)F)C[C@@H]4C)CC3)[nH]2)cc1 [Compound A21, (R)-3,3,3-Trifluoro-2-hydroxy-2-methyl-1-{(3R,4R)-3-methyl-4-[1-(5-p-tolyl-4H-[1,2,4]triazol-3-yl)-cyclopropyl]-piperidin-1-yl}-propan-1-one]
13 | COc1ccc(-c2nnc(C3([C@@H]4CCN(C(=O)[C@@](C)(O)C(F)(F)F)C[C@@H]4C)CC3)[nH]2)cc1 [Compound A27, (R)-3,3,3-Trifluoro-2-hydroxy-1-((3R,4R)-4-{1-[5-(4-methoxy-phenyl)-4H-[1,2,4]triazol-3-yl]-cyclopropyl}-3-methyl-piperidin-1-yl)-2-methyl-propan-1-one]
18 | C[C@H]1CN(C(=O)[C@@](C)(O)C(F)(F)F)CC[C@H]1C1(c2nnc(-c3ccc(Cl)cc3)[nH]2)CC1 [Compound A33, (R)-1-((3R,4R)-4-{1-[5-(4-Chloro-phenyl)-4H-[1,2,4]triazol-3-yl]-cyclopropyl}-3-methyl-piperidin-1-yl)-3,3,3-trifluoro-2-hydroxy-2-methyl-propan-1-one]
